Test results reported in patent publication US11293870B2, “Vital stain” (Mie University, priority 2013, dated 2022).
Entries after “also recorded” stand apart in the source; their conditions may differ. Where a name gives a salt, the structure may show the parent alone. Read-outs that look alike come from different tables or passages of the source.

How the values were obtained:
[1] = cited from earlier work
[2] = system: epithelial cells/adenocytes and connective tissue/capillaries; test: Preferential staining of epithelial cells/adenocytes or connective tissue/capillaries; type: in vivo, mouse; details: 5 mg/ml for curcumin, 1 mg/ml for all other dyes
Experimental: Drinking water containing 2% (w/v) dextran sodium sulfate (DSS) was given to 8-week-old C57B6 mice (male, approximately 20 g) for 7 days. After intraperitoneal injection of 0.2 ml of 5% chloral hydrate for anesthesia, the mouse abdominal wall was incised vertically to about 1 cm, and the gastrointestinal tract was raised over the abdominal wall to about 1 cm. Blood flow to the gastrointestinal tract was maintained during this time by the blood vessel flowing into the mesenteric attachment site. The gastrointestinal tract was incised vertically to about 1 cm on opposite side of the mesenteric attachment site, including the tunica muscularis and mucosa. The opposite side of the mesenteric attachment site was incised in order to prevent severance and damage of the blood vessel and minimize bleeding. When the incision site of the gastrointestinal tract was opened vertically, the mucosal surface of the gastrointestinal tract, as the food channel, became visible. When food digestion products were present they were wiped off with tissue paper.
A metal ring (outer diameter: 16 millimeters, inner diameter, 6 millimeters) was placed on a laboratory stage, and a rapid bonding adhesive (AronAlpha) was coated over the entire periphery of the ring surface on one side. Forceps were used to hold the rapid bonding adhesive-coated metal ring with the adhesive-coated surface facing downward, and it was set on the pronase-treated mucosal surface. During a period of about 5 minutes, the metal ring became anchored to the mucosa with the rapid bonding adhesive, and the region where the dye compound was to be applied was rinsed with PBS.
In order to avoid drying of the mucosal surface, a curcumin stock solution or sulfuretin stock solution diluted with physiological saline (PBS) (see Tables 1 to 3 for the dilution factors) was added dropwise onto the pronase-treated mucosal surface, and after allowing it to stand for 1 minute, it was rinsed 3 times with PBS, a cover glass was placed over the metal ring, and the objective lens of a multiphoton laser microscope (FV1000 MPE by Olympus Corp.) was brought near to the top of the cover glass for image observation.
The procedure from administration of the dye compound to observation was conducted as described above under “Evaluation of stainability” (same hereunder). Also, the administered concentration of dye to the mucosal surface was 5 mg/ml for curcumin as Dye No. 1, and 1 mg/ml for all of the other dyes.

[3] = system: MDCK-GFP-Ras^V12 cells mixed with MDCK normal cells; test: In vitro assay of MDCK-Ras^V12 cancerized cell small aggregates as a very early cancer model; type: cell-based, canine; details: excitation 750, 800, 850, 900 nm, red fluorescence
Experimental: The MDCK normal cells were cultured in a 10 cm dish, and the MDCK-GFP-Ras^V12 cells were cultured in a 6 cm dish. The culture solution used for the MDCK normal cells was DMEM (containing Phenol Red)+10% FBS+penicillin/streptomycin.
The solution used for the MDCK-GFP-Ras^V12 cells was DMEM (containing Phenol Red)+10% FBS+penicillin/streptomycin+Zeocin (400 μg/ml)+blasticidin (5 μg/ml). […] The seeding was carried out using a DMEM+10% FBS+penicillin/streptomycin culture solution, to 1.0 to 3.0×10^4 cells per well of the 96-well dish. Tetracycline at a concentration of 2 μg/ml was added to the culture solution after 4 days when seeding was to 1.0×10^4 or after 1 day when seeding was to 3.0×10^4, and GFP-Ras^V12 was expressed, forming cancerized cell small aggregates among the MDCK normal cells (NPL 3). After 18 to 36 hours, the cells in each of the wells were rinsed 3 times with 200 μl of PBS, and then the Prestwick Chemical Library compounds and the Ministry of Health, Labour and Welfare-approved food additives, each diluted to 1 μM with a 100 μl volume of PBS, were added to the respective wells and taken up by the cells for 5 minutes at room temperature. They were then rinsed 3 times with 200 μl of PBS, and in certain cases further rinsed once with 100 μl of DMEM without Phenol Red, and observed under a multiphoton laser microscope.

[4] = cited from earlier work; remark: listed apart in the source
[5] = system: cancer lesion site versus normal mucosa of large intestine; test: Comparison of staining patterns in normal site and cancer tumor site of large intestine; type: in vivo, mouse; details: Example 1; regardless of pronase treatment of the mucosal surface
Experimental: Drinking water containing 2% (w/v) dextran sodium sulfate (DSS) was given to 8-week-old C57B6 mice (male, approximately 20 g) for 7 days. After intraperitoneal injection of 0.2 ml of 5% chloral hydrate for anesthesia, the mouse abdominal wall was incised vertically to about 1 cm, and the gastrointestinal tract was raised over the abdominal wall to about 1 cm. Blood flow to the gastrointestinal tract was maintained during this time by the blood vessel flowing into the mesenteric attachment site. The gastrointestinal tract was incised vertically to about 1 cm on the opposite side of the mesenteric attachment site, including the tunica muscularis and mucosa. The opposite side of the mesenteric attachment site was incised in order to prevent severance and damage of the blood vessel and minimize bleeding. When the incision site of the gastrointestinal tract was opened vertically, the mucosal surface of the gastrointestinal tract, as the food channel, became visible. When food digestion products were present they were wiped off with tissue paper. In order to more clearly observe the gastrointestinal tract mucosal surface, a 1% pronase solution was dropped onto the mucosal surface and was allowed to stand still for 15 minutes. This pronase treatment removed the mucus from the mucosal surface, rendering the cell structure more easily visible. Next, the pronase was removed from the mucosal surface and rinsed with physiological saline (PBS). A metal ring (outer diameter: 16 millimeters, inner diameter, 6 millimeters) was placed on a laboratory stage, and a rapid bonding adhesive (AronAlpha) was coated over the entire periphery of the surface on one side. Forceps were used to hold the rapid bonding adhesive-coated metal ring with the adhesive-coated surface facing downward, and it was set on the pronase-treated mucosal surface. During a period of about 5 minutes, the metal ring became anchored to the mucosa with the rapid bonding adhesive, and the region where the dye compound was to be applied was rinsed with PBS. […] FIG. 32 is a drawing for illustration of a stainability evaluation step for the aforementioned dye compounds. […] Z stack image). […] Both of the staining photographs of the normal site and cancer tumor site were taken under the same conditions.

[6] = Prestwick Chemical Library compounds, 1 μM, 5 minutes
[7] = Ministry of Health, Labour and Welfare-approved food additives, 1 mg/ml

Oc1ccc(-c2ccc3c(O)cc(O)cc3[o+]2)cc1.[Cl-] [Apigeninidin]
LD50 ([1]; Mouse, Oral): 300 mg/kg

O=C1/C(=C2\Nc3ccc(S(=O)(=O)[O-])cc3C2=O)Nc2ccc(S(=O)(=O)[O-])cc21.[Na+].[Na+] [Blue #2, indigo carmine]
Cell group preferentially stained (epithelial cells/adenocytes or connective tissue/capillaries) [2]: preferentially stained connective tissue/capillaries | LD50 ([1]; Mouse, Oral): 2000 mg/kg

CC1=C(/C=C/C(C)=C/C=C/C(C)=C/C=C/C=C(C)/C=C/C=C(C)/C=C/C(=O)[C@]2(C)C[C@@H](O)CC2(C)C)C(C)(C)C[C@H](O)C1 [Capsanthin]
LD50 ([1]; Mouse, Oral): 300 mg/kg

COc1cc(-c2ccc(N=Nc3ccc4c(S(=O)(=O)[O-])cc(S(=O)(=O)[O-])c(N)c4c3O)c(OC)c2)ccc1N=Nc1ccc2c(S(=O)(=O)[O-])cc(S(=O)(=O)[O-])c(N)c2c1O.[Na+].[Na+].[Na+].[Na+] [Chicago sky blue 6B, reference compound]
Staining of GFP-Ras^V12 positive cancerized cells versus MDCK normal cells [3, 6]: labeling both cancerized cell small aggregates and normal cells | Staining of GFP-Ras^V12 positive cancerized cells versus MDCK normal cells ([3]; Prestwick Chemical Library compounds, 1 μM, 5 minutes, listed as Chicago Sky Blue 6B): equal staining of normal cells and cancer cells

COc1cc(/C=C/C(=O)CC(=O)/C=C/c2ccc(O)c(OC)c2)ccc1O [Curcumin (pure), Curcumin]
LD50 ([1]; mouse, in vivo, po): 2000 mg/kg

Oc1cc(O)c2cc(O)c(-c3ccc(O)c(O)c3)[o+]c2c1 [Cyanidin]
LD50 ([4]; rat, in vivo): 1500 mg/kg

Oc1cc(O)c2cc(O)c(-c3cc(O)c(O)c(O)c3)[o+]c2c1 [Delphinidin]
LD50 ([4]; rat, in vivo): 1250 mg/kg

O=C(O[C@@H]1Cc2c(O)cc(O)cc2O[C@@H]1c1cc(O)c(O)c(O)c1)c1cc(O)c(O)c(O)c1 [Epigallocatechin gallate]
Cell group preferentially stained (epithelial cells/adenocytes or connective tissue/capillaries) [2]: preferentially stained epithelial cells/adenocytes | LD50 ([1]; Mouse, Oral): 2170 mg/kg

CCCCC[C@H](O)CC(=O)CCc1ccc(O)c(OC)c1 [Gingerol, 6-gingerol]
Cell group preferentially stained (epithelial cells/adenocytes or connective tissue/capillaries) [2]: preferentially stained epithelial cells/adenocytes | LD50 ([1]; mouse, in vivo, po): 250 mg/kg

CCN(Cc1cccc(S(=O)(=O)[O-])c1)c1ccc(C(=C2C=CC(=[N+](CC)Cc3cccc(S(=O)(=O)[O-])c3)C=C2)c2ccc(O)cc2S(=O)(=O)[O-])cc1.[Na+].[Na+] [Green #3, Fast Green FCF]
Staining of GFP-Ras^V12 positive cancerized cells versus MDCK normal cells [3, 7]: labeled GFP-Ras^V12-positive cancerized cell small aggregates more intensely than normal cells; also recorded: specific staining of cancer cells | Cell group preferentially stained (epithelial cells/adenocytes or connective tissue/capillaries) [2]: some adenocytes and connective tissue/capillaries were strongly stained | LD50 ([4]; Rat, Oral): >2000 mg/kg

CC1(C)C(/C=C/C=C/C=C/C=C2\N(CCCCS(=O)(=O)O)c3ccc4ccccc4c3C2(C)C)=[N+](CCCCS(=O)(=O)[O-])c2ccc3ccccc3c21 [Indocyanine green, reference compound]
Cell group preferentially stained (epithelial cells/adenocytes or connective tissue/capillaries) [2]: preferentially stained epithelial cells/adenocytes

COc1cc(-c2[o+]c3cc(O)cc(O)c3cc2O)cc(OC)c1O [Malvidin]
LD50 ([1]; Mouse, Intra-venous): 18 mg/kg

O=c1c(O)c(-c2cc(O)c(O)c(O)c2)oc2cc(O)cc(O)c12 [Myricetin]
Cell group preferentially stained (epithelial cells/adenocytes or connective tissue/capillaries) [2]: preferentially stained epithelial cells/adenocytes | LD50 ([1]; Mouse, Oral): 300 mg/kg

Oc1ccc(-c2[o+]c3cc(O)cc(O)c3cc2O)cc1 [Pelargonidin]
LD50 ([1]; Mouse, Oral): 300 mg/kg

COc1cc(-c2[o+]c3cc(O)cc(O)c3cc2O)cc(O)c1O [Petunidine]
Cell group preferentially stained (epithelial cells/adenocytes or connective tissue/capillaries) [2]: preferentially stained epithelial cells/adenocytes | LD50 ([1]; Mouse, Intra-abdominal): 4110 mg/mL

O=c1c(O)c(-c2ccc(O)c(O)c2)oc2cc(O)cc(O)c12 [Quercetin]
Cell group preferentially stained (epithelial cells/adenocytes or connective tissue/capillaries) [2]: intensely stained connective tissue/capillaries and faintly stained epithelial cells/adenocytes

O=S(=O)([O-])c1ccc2c(N=Nc3ccc(S(=O)(=O)[O-])c4ccccc34)c(O)c(S(=O)(=O)[O-])cc2c1.[Na+].[Na+].[Na+] [Red #2]
LD50 ([1]; Mouse, Intra-abdominal): 1000 mg/kg

O=C1OC2(c3ccccc31)c1cc(I)c(O)c(I)c1Oc1c2cc(I)c(O)c1I [Red #3, erythrosine]
Staining of GFP-Ras^V12 positive cancerized cells versus MDCK normal cells [3, 7]: GFP-Ras^V12 positive cells were preferentially stained | Staining of GFP-Ras^V12 positive cancerized cells versus MDCK normal cells ([3]; Ministry of Health, Labour and Welfare-approved food additives, 1 mg/ml, listed as erythrosine): labeled GFP-Ras^V12-positive cancerized cell small aggregates more intensely than normal cells | Staining of cancer lesion sites compared with normal mucosa [5]: stained cancer lesion sites much more intensely than normal mucosa | Cell group preferentially stained (epithelial cells/adenocytes or connective tissue/capillaries) [2]: preferentially stained epithelial cells/adenocytes | LD50 ([1]; mouse, in vivo, po): 6800 mg/kg

O=C([O-])c1c(Cl)c(Cl)c(Cl)c(Cl)c1-c1c2cc(I)c(=O)c(I)c-2oc2c(I)c([O-])c(I)cc12.[Na+].[Na+] [Red #105 (720 nm)]
LD50 ([1]; Mouse, Oral): 6480 mg/kg

CCN(CC)c1ccc2c(-c3ccc(S(=O)(=O)[O-])cc3S(=O)(=O)[O-])c3ccc(=[N+](CC)CC)cc-3oc2c1.[Na+] [Red #106, Acid Red]
Staining of GFP-Ras^V12 positive cancerized cells versus MDCK normal cells [3, 7]: labeled both cancerized cell small aggregates and normal cells; also recorded: staining of both normal cells and cancer cells | Cell group preferentially stained (epithelial cells/adenocytes or connective tissue/capillaries) [2]: the cell membranes of epithelial cells and adenocytes, and connective tissue/capillaries were strongly stained | LD50 ([1]; Mouse, Oral): >20,000 mg/kg | LD50 ([1]; Mouse, Oral, listed as Acid Red): >20000 mg/kg

Oc1ccc2cc(O)c(-c3cc(O)c(O)c(O)c3)[o+]c2c1 [Robinetinidin]
Cell group preferentially stained (epithelial cells/adenocytes or connective tissue/capillaries) [2]: preferentially stained connective tissue/capillaries

Oc1cc(O)c2ccc(-c3cc(O)c(O)c(O)c3)[o+]c2c1 [Tricetinidin]
Cell group preferentially stained (epithelial cells/adenocytes or connective tissue/capillaries) [2]: preferentially stained epithelial cells/adenocytes | LD50 ([1]; Mouse, Oral): 300 mg/kg

O=C(O)c1nn(-c2ccc(S(=O)(=O)O)cc2)c(O)c1N=Nc1ccc(S(=O)(=O)O)cc1 [Yellow #4, tartrazine]
LD50 ([1]; Mouse, Oral): 12750 mg/kg

O=S(=O)([O-])c1ccc(N=Nc2c(O)ccc3cc(S(=O)(=O)[O-])ccc23)cc1.[Na+].[Na+] [Yellow #5, Sunset Yellow FCF]
LD50 ([1]; Mouse, Oral): >6000 mg/kg

COc1cccc2c1C(=O)c1c(O)c3c(c(O)c1C2=O)C[C@@](O)(C(=O)CO)C[C@@H]3O[C@H]1C[C@H](N)[C@H](O)[C@H](C)O1 [doxorubicin hydrochloride, reference compound]
Staining of GFP-Ras^V12 positive cancerized cells versus MDCK normal cells ([3]; Prestwick Chemical Library compounds, 1 μM, 5 minutes, hydrochloride): intensely labeling MDCK normal cells compared to cancerized cell small aggregates; also recorded: GFP-Ras^V12 cells were not specifically stained, but normal cells were stained

O=C([O-])c1ccccc1-c1c2cc(Br)c(=O)cc-2oc2[c]([Hg+])c([O-])c(Br)cc12.[Na+].[Na+].[OH-] [merbromin, reference compound]
Staining of GFP-Ras^V12 positive cancerized cells versus MDCK normal cells [3, 6]: intensely labeled in GFP-Ras^V12 positive cancerized cell small aggregates compared to normal cells; also recorded: GFP-Ras^V12 positive cells were preferentially stained

CC1=C(/C=C/C(C)=C/C=C/C(C)=C/C=C/C=C(C)/C=C/C=C(C)/C=C/C2=C(C)CCCC2(C)C)C(C)(C)CCC1 [β-Carotene]
Cell group preferentially stained (epithelial cells/adenocytes or connective tissue/capillaries) [2]: preferentially stained epithelial cells/adenocytes | LD50 ([4]; Rat, Oral): 5000 mg/kg

meclocycline sulfosalicylate [reference compound]
Staining of GFP-Ras^V12 positive cancerized cells versus MDCK normal cells [3, 6]: intensely labeled in GFP-Ras^V12 positive cancerized cell small aggregates compared to normal cells; also recorded: GFP-Ras^V12 positive cells were preferentially stained
